Values of other authors as cited in patent publication US20090130187A1, “Covalent Conjugates of Cotton and Substitutes (Viscose, Modal Cotton) with Bioactive Substances Having Antiseptic, Sanitizing, Acaricidal and Insect Repellent Activity, and a Method for Obtaining Them” (priority 2006, published 2009).

Tested on: rat

Q: Which “LD 50 (rat)” value does the source give for Clc1nc(Cl)nc(Cl)n1 [2,4,6-tri-chloro 1,3,5 triazine] here?
A: 930 mg/kg
